{
  "source": "patent US8524890B2",
  "about": "“Water-soluble phthalocyanine dye” (National Institute for Materials Science, priority 2009, dated 2013)",
  "format_in_all_cases": "physicochemical",
  "key": {"[1]": {"assay": "Solubility and aggregation in aqueous Triton-X100 solution (optical absorption spectra, FIG. 8, FIG. 9)"}, "[2]": {"assay": "Solubility and aggregation in pure water"}, "[3]": {"assay": "Solubility and aggregation in mixed water/ethanol solvent (optical absorption spectra, FIG. 7)"}},
  "data": [
    {"substance": "[Sb(tbpc)(SO4)(HSO4)].4H2O [Compound 2]", "values": [
      {"measurement": "concentration up to which the dye remains disaggregated", "setting": "[1]; Triton-X100 2% (w/v), absorbance at around 730 nm (FIG. 9)", "result": 20, "unit": "µM"},
      {"measurement": "aggregation state above certain concentration of the surfactant", "setting": "[1]; aqueous Triton-X100, above certain surfactant concentration (FIG. 8)", "result": "remains dissolved in a disaggregated form"},
      {"measurement": "solubility in the presence of Triton-X100", "setting": "[1]; aqueous, Triton-X100 present", "result": "grows high"},
      {"measurement": "aggregation in pure water", "setting": "[2]", "result": "strong aggregation"},
      {"measurement": "aggregation state", "setting": "[3]; 10% (v/v) ethanol", "result": "substantially aggregated form"},
      {"measurement": "aggregation state", "setting": "[3]; 30% (v/v) ethanol", "result": "a peak ascribable to disaggregated species is clearly observed"},
      {"measurement": "aggregation state", "setting": "[3]; 50% ethanol", "result": "contribution of aggregated species is negligible"},
      {"measurement": "water solubility on addition of alcohol", "setting": "[3]; alcohol added", "result": "greatly improved"}
    ]}
  ]
}
